According to patent publication US9062041B2 (Bayer Intellectual Property GmbH, priority 2011, dated 2015):

How the values were obtained:
Type in all cases: cell-based
[1] = target: EP4 subtype of the human PGE2 receptor (Homo sapiens, UniProt P35408); assay: cAMP antagonism test on the human EP4 receptor (HTRF cAMP detection); settings: selectivity towards hEP4, IC50 measured by cAMP antagonism test
Summary of the method: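 Cells expressing human EP4 preincubated 20 min at RT with compound (0.8 nM–16.5 μM), then stimulated with PGE2 (0.3 nM in 3× solution, with IBMX) 60 min at RT. After lysis, cAMP measured by HTRF competition (665/620 nm ratio); antagonism seen as rise in FRET signal.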

[2] = target: EP2 subtype of the human PGE2 receptor (Homo sapiens, UniProt P43116); assay: cAMP antagonism test on the human EP2 receptor (HTRF cAMP detection); settings: hEP2 receptor, read-out: Antagonism hEP2 IC50
EP2 subtype of the human PGE2 receptor, sequence (P43116 whole entry): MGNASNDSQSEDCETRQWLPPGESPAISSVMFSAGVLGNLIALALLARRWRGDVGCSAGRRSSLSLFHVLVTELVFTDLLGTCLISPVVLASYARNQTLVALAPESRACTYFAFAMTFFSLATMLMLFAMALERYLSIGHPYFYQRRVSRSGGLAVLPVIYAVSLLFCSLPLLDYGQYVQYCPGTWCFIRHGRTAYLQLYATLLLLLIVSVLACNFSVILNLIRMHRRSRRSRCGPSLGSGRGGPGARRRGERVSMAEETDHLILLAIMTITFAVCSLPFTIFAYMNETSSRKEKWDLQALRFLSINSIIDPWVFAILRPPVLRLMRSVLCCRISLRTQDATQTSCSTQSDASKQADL
Summary of the method: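 Cells expressing human EP2 preincubated 20 min at RT with compound (0.8 nM–16.5 μM), then stimulated 60 min with PGE2 (3× solution 1.5 nM) in PBS-IBMX. After 20 min lysis, cAMP measured by competitive HTRF with cAMP-d2 and Eu cryptate anti-cAMP antibody (665/620 nm ratio).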

human PGD receptor = target: T1, human PGD receptor (Homo sapiens, UniProt Q13258); assay: cAMP antagonism test on the human prostaglandin D receptor (HTRF cAMP detection); settings: selectivity towards hDP, IC50 measured by cAMP antagonism test
T1 sequence (Q13258 1-359): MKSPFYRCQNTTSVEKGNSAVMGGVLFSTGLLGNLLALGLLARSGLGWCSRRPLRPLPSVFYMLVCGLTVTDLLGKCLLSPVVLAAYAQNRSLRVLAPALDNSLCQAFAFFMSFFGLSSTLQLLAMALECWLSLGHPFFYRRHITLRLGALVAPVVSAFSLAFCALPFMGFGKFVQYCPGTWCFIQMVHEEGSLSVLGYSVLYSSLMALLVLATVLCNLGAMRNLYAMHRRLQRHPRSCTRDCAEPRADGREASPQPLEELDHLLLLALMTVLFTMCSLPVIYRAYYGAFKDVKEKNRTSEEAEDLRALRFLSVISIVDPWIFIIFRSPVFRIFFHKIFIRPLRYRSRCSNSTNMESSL
Summary of the method: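 Cells pre-mixed with cAMP-d2 were preincubated with compound (0.8 nM–16.5 μM) for 20 min at RT, then stimulated with 3× PGD2 solution (6 nM, in PBS-IBMX) for 30 min at RT. After lysis (20 min), HTRF read at 665/620 nm; antagonism seen as rise in FRET ratio.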

EP4 subtype of the human PGE2 receptor, sequence (P35408 whole entry): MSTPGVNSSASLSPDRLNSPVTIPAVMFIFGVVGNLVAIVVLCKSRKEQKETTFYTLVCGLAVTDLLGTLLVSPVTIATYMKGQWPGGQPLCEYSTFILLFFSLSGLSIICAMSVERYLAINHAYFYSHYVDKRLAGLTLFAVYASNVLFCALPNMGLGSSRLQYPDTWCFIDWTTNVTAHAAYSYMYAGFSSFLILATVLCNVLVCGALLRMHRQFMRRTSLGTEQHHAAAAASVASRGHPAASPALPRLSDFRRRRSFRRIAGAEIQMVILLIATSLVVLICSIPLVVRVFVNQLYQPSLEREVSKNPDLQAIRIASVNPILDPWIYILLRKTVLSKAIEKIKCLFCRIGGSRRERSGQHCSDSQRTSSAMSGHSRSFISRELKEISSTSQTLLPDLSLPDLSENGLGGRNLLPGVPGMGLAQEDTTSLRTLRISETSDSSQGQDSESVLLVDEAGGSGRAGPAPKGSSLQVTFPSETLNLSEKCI

SMILES | Selectivity hEP2/hEP4 [1] | IC50 [2] [nM] | Selectivity hEP2/hDP (human PGD receptor)
COc1ccc(-c2ccc(C(=O)N3CCC(Cn4cc5c(C)c(C(=O)NCC(F)(F)F)ccc5n4)CC3)cc2)cn1 [Example 322, 2-({1-[4-(6-methoxypyridin-3-yl)benzoyl]piperidin-4-yl}methyl)-4-methyl-N-(2,2,2-trifluoroethyl)-2H-indazol-5-carboxamide] | xxx (xxx > 100) | 76.2 | xxx (xxx > 100)
COCCNC(=O)c1ccc2nn(CC3CN(C(=O)c4ccc(Oc5ccc(Cl)cc5)cc4)C3)cc2c1C [Example 166, 2-({1-[4-(4-chlorophenoxy)benzoyl]azetidin-3-yl}methyl)-N-(2-methoxyethyl)-4-methyl-2H-indazol-5-carboxamide] | xxx (xxx > 100) | 2.87 | xxx (xxx > 100)
Cc1c(C(=O)NCC#N)ccc2nn(CC3CCN(C(=O)c4ccc(Oc5ccc(C(F)(F)F)cc5)cc4)CC3)cc12 [Example 247, N-(cyanomethyl)-4-methyl-2-[(1-{4-[4-(trifluoromethyl)phenoxy]benzoyl}piperidin-4-yl)methyl]-2H-indazol-5-carboxamide] | xxx (xxx > 100) | 12.6 | xxx (xxx > 100)
Cc1c(C(=O)NCC(C)OCC2CC2)ccc2nn(CC3CCN(C(=O)c4ccc(C(F)(F)F)cc4)CC3)cc12 (racemic) [Example 104, (+/−)-N-[2-(cyclo-propylmethoxy)-propyl]-4-methyl-2-({1-[4-(trifluoro-mcthyl)benzoyl]-piperidin-4-yl}-methyl)-2H-indazol-5-carboxamide] | xx (xx: 10-100) | 513 | xx (xx: 10-100)
Cc1c(C(=O)NCC(F)(F)F)ccc2nn(CC3CCN(C(=O)c4ccc(OC(F)(F)F)cc4)CC3)cc12 [Example 73, 4-methyl-N-(2,2,2-trifluoroethyl)-2-({1-[4-(trifluoromethoxy)benzoyl]piperidin-4-yl}methyl)-2H-indazol-5-carboxamide] | xxx (xxx > 100) | 77.8 | xxx (xxx > 100)
COCCNC(=O)c1cc2cn(CC3CCN(C(=O)c4ccc(C(F)(F)F)c(F)c4)CC3)nc2cc1C [Example 208, 2-({1-[3-fluoro-4-(trifluoromethyl)benzoyl]piperidin-4-yl}methyl)-N-(2-methoxyethyl)-6-methyl-2H-indazol-5-carboxamide] | xxx (xxx > 100) | 80.6 | xxx (xxx > 100)
COCCNC(=O)c1ccc2nn(CC3CN(C(=O)c4ccc(SC(F)(F)F)cc4)C3)cc2c1OC [Example 215, 4-methoxy-N-(2-methoxyethyl)-2-[(1-{4-[(trifluoromethyl)sulphanyl]benzoyl}azetidin-3-yl)methyl]-2H-indazol-5-carboxamide] | xxx (xxx > 100) | 39 | xxx (xxx > 100)
CCc1c(C(=O)NCCOC)ccc2nn(CC3CCN(C(=O)c4ccc(OC(F)(F)F)cc4)CC3)cc12 [Example 213, 4-Ethyl-N-(2-methoxyethyl)-2-({1-[4-(trifluoromethoxy)benzoyl]piperidin-4-yl}methyl)-2H-indazol-5-carboxamide] | xxx (xxx > 100) | 82.4 | xxx (xxx > 100)
Cc1ccc(C(=O)N2CCC(Cn3cc4c(C)c(C(=O)NCCOC(C)C)ccc4n3)CC2)cc1 [Example 97, N-(2-isopropoxy-ethyl)-4-methyl-2-{[1-(4-methyl-benzoyl)piperidin-4-yl]methyl}-2H-indazol-5-carboxamide] | xxx (xxx > 100) | 12.7 | xxx (xxx > 100)
Cc1c(C(=O)NCC(F)(F)F)ccc2nn(CC3CN(C(=O)c4ccc(-c5ccc(F)cc5)cc4)C3)cc12 [Example 161, 2-({1-[(4′-fluorobiphenyl-4-yl)carbonyl]azetidin-3-yl}methyl)-4-methyl-N-(2,2,2-trifluoroethyl)-2H-indazol-5-carboxamide] | xxx (xxx > 100) | 98.2 | xxx (xxx > 100)
COCCNC(=O)c1ccc2nn(C[C@@H]3CCN(C(=O)c4ccc(Cl)cc4)C3)cc2c1C [Example 217, 2-{[(R)-1-(4-chlorobenzoyl)pyrrolidin-3-yl]methyl}-N-(2-methoxyethyl)-4-methyl-2H-indazol-5-carboxamide] | xxx (xxx > 100) | 114 | xxx (xxx > 100)
COCCNC(=O)c1ccc2nn(CC3CCN(C(=O)c4ccc(-c5ccccc5)c(C)c4)CC3)cc2c1C [Example 394, N-(2-methoxyethyl)-4-methyl-2-({1-[(2-methylbiphenyl-4-yl)carbonyl]piperidin-4-yl}methyl)-2H-indazol-5-carboxamide] | xxx (xxx > 100) | 5.7 | xxx (xxx > 100)
COCCNC(=O)c1ccc2nn(CC3CCN(C(=O)c4ccc(Oc5ccc(F)cc5)cc4)CC3)cc2c1C [Example 3, 2-({1-[4-(4-fluorophenoxy)benzoyl]piperidin-4-yl}methyl)-N-(2-methoxyethyl)-4-methyl-2H-indazol-5-carboxamide] | xxx (xxx > 100) | 4.91 | xxx (xxx > 100)
Cc1cc2nn(CC3CN(C(=O)c4ccc(S(F)(F)(F)(F)F)cc4)C3)cc2cc1C(=O)NCCN1CCOCC1 [Example 280, 6-methyl-N-(2-morpholinoethyl)-2-({1-[4-(pentafluoro-λ^6-sulphanyl)benzoyl]-azetidin-3-yl}methyl)-2H-indazol-5-carboxamide] | xxx (xxx > 100) | 30.7 | xxx (xxx > 100)
Cc1c(C(=O)NCCOCC2CC2)ccc2nn(CC3CN(C(=O)c4ccc(Cl)cc4)C3)cc12 [Example 149, 2-{[1-(4-chlorobenzoyl)azetidin-3-yl]methyl}-N-[2-(cyclopropylmethoxy)ethyl]-4-methyl-2H-indazol-5-carboxamide] | xxx (xxx > 100) | 29.6 | xxx (xxx > 100)
COCCNC(=O)c1ccc2nn(CC3CCN(C(=O)c4ccc(Cl)cc4)CC3)cc2c1OC(F)F [Example 225, 2-{[1-(4-chlorobenzoyl)piperidin-4-yl]methyl}-4-(difluoromethoxy)-N-(2-methoxyethyl)-2H-indazol-5-carboxamide] | xxx (xxx > 100) | 14.3 | xxx (xxx > 100)
COCCNC(=O)c1ccc2nn(CC3CCN(C(=O)c4cccc(Cl)c4)CC3)cc2c1C [Example 28, 2-{[1-(3-chloro-benzoyl)piperidin-4-yl]methyl}-N-(2-methoxyethyl)-4-methyl-2H-indazol-5-carboxamide] | xxx (xxx > 100) | 33.9 | xxx (xxx > 100)
COCCNC(=O)c1ccc2nn(CC3CN(C(=O)c4ccc(Cl)cc4F)C3)cc2c1C [Example 121, 2-{[1-(4-chloro-2-fluorobenzoyl)azetidin-3-yl]methyl}-N-(2-methoxyethyl)-4-methyl-2H-indazol-5-carboxamide] | xxx (xxx > 100) | 15.5 | xxx (xxx > 100)
Cc1c(C(=O)NCC(F)(F)F)ccc2nn(CC3CCN(C(=O)c4ccc(-c5ccc(Cl)cn5)cc4)CC3)cc12 [Example 317, 2-({1-[4-(5-chloropyridin-2-yl)benzoyl]piperidin-4-yl}methyl)-4-methyl-N-(2,2,2-trifluoroethyl)-2H-indazol-5-carboxamide] | xx (xx: 10-100) | 181 | xx (xx: 10-100)
